According to patent US12329738B2, “Urolithin A and a composition containing same for external use in inflammations of various etiologies” (WARSZAWSKI UNIWERSYTET MEDYCZNY, priority 2018, dated 2025):
One block for each compound: values may come before it.

Key:
TNF-alpha [1] = assay: TNF-alpha production by THP-1 derived macrophages (ELISA); assay type: cell-based, human; conditions: 40 μM; LPS stimulation; FIG. 13
Method: (§1) Monocytes of the THP-1 line were cultured in RPMI 1640 medium supplemented with 10% FBS and 2 mM glutamine. For transformation of monocytes into macrophages, the cells were treated with 12.5 ng/mL PMA (phorbol 12-myristate 13-acetate) for 48 hours, then washed and incubated for 24 hours in a culture medium without PMA. After this time, urolithin A, urolithin B, iso-urolithin A and the corresponding glucuronides (GUA, GUB and GiUA) were added to the cells at a concentration of 40 μM. After 1 hour of incubation with the compounds, the cells were stimulated with LPS from Escherichia coli (10 ng/mL).
(§2) To assess the level of TNF-alpha production, the cells were incubated for 6 hours, to assess the expression of mRNA for TNF-alpha, the cells were incubated for 24 hours, to assess the effect on ERK1/2 phosphorylation, the cells were incubated for 35 minutes.
(§3) The level of TNF-alpha in the culture medium was determined using the immunochemical ELISA method (BD biosciences). Evaluation of the expression of mRNA for TNF-alpha was performed using real time PCR. After 24 hours of incubation, RNA was isolated using NucleoSpin RNA Clean-up (Macherey-Nagel). The amount and quality of isolated RNA was determined using 2100 Bioanalyzer (Agilent Technologies). The expression level of mRNA for TNF-α was determined using Brilliant II SYBR Green QPCR Kit and Aria Mx Real-Time PCR thermocycler (Agilent Technologies). The following were used as primers for TNF-alpha: forward: 5′-[…]-3′, reverse: 5′-[…]-3′. Beta-actin (ACTB) was used as the housekeeping gene; primer forward: 5′-[…]-3′, reverse: 5′-[…]-3′).
(§4) The obtained results of experiments on in vitro models were analyzed using the Statistica 13 program (StatSoft, Inc., Tulsa, OK, USA) and presented as mean values±SEM. Statistical significance was set at P≤0.05. The results with established normal distribution in the D'Agostin and Pearson test were prepared using analysis of variance (ANOVA). Parametric post-hoc analysis was performed using Dunnett's test.

[2] = tested on: Wistar rats (DNCB-induced atopic dermatitis); assay: Peripheral blood morphology in DNCB-induced atopic dermatitis rat model; assay type: in vivo
Method: Wistar rats aged 5-6 weeks (at the start of the experiment) kept under standard conditions with free access to feed and water were used for the tests. The animals were divided into 5 groups, 8 individuals in each group. To prepare 2,4-dinitrochlorobenzene (DNCB) composition inducing inflammation, DNCB was dissolved in 70% ethanol to a final concentration of 1.5% (w/v). Therapeutic composition was an ointment based on white petrolatum with 0.2% or 1.0% urolithin A added. The control ointment was white petrolatum without addition of urolithin A.
The induction of chronic atopic dermatitis involved local 9-fold infiltration with 60 μl 1.5% 2,4-dinitrochlorobenzene (DNCB) on each (external and internal) surface of the right ear over 3 weeks (3 times a week). Negative control was the right ear of rats without induction inflammation.
Treatment of atopic dermatitis with 0.2% or 1.0% urolithin composition and white petrolatum (control) or 1.0% hydrocortisone composition (positive control) was started eight days after sensitization—one day before the fourth application of DNCB. Ointments with appropriate for given group drug added were applied in a total volume of about 20 μl to each ear surface one day before and 6 hours after each DNCB application (for a period of 3 weeks). The negative control group consisted of rats without induced inflammation and treated with white petrolatum in a regimen analogous to the composition of urolithin A or hydrocortisone.
2 mL blood samples were drawn into syringes (containing heparin as an anticoagulant) from the heart under general anesthesia (isoflurane) on day 32 of the experiment. The test was conducted using the DIATRON automated hematology analyzer. Peripheral blood analysis included the assessment of morphotic elements in blood: erythrocytes, leukocytes and thrombocytes and determination of the number and percentage of different types of leukocytes—WBC as well as values of erythrocyte indicators: hemoglobin (HGB), hematocrit (HCT), mean corpuscular volume (MCV), mean corpuscular hemoglobin (MCH) and mean corpuscular hemoglobin concentration (MCHC).
The experimental results obtained were analyzed using the Statistica 7.1 program (StatSoft, Inc., Tulsa, OK, USA) and presented as mean values±SE. Statistical significance was set at P≤0.05. The results with established normal distribution in the D'Agostin and Pearson test were prepared using two- or three-factor analysis of variance (ANOVA). Parametric post-hoc analysis for individual time points was performed using the Bonferroni test.

[3] = tested on: Wistar rats (DNCB-induced atopic dermatitis); assay: Pruritus level (scratch reflexes) in DNCB-induced atopic dermatitis rat model; assay type: in vivo; conditions: topical ointment; urolithin A 0.2 and 1.0% (p<0.001), hydrocortisone 1% (p<0.01)
Method: Wistar rats aged 5-6 weeks (at the start of the experiment) kept under standard conditions with free access to feed and water were used for the tests. The animals were divided into 5 groups, 8 individuals in each group. To prepare 2,4-dinitrochlorobenzene (DNCB) composition inducing inflammation, DNCB was dissolved in 70% ethanol to a final concentration of 1.5% (w/v). Therapeutic composition was an ointment based on white petrolatum with 0.2% or 1.0% urolithin A added. The control ointment was white petrolatum without addition of urolithin A. The induction of chronic atopic dermatitis involved local 9-fold infiltration with 60 μl 1.5% 2,4-dinitrochlorobenzene (DNCB) on each (external and internal) surface of the right ear over 3 weeks (3 times a week). Negative control was the right ear of rats without induction inflammation. Treatment of atopic dermatitis with 0.2% or 1.0% urolithin composition and white petrolatum (control) or 1.0% hydrocortisone composition (positive control) was started eight days after sensitization—one day before the fourth application of DNCB. Ointments with appropriate for given group drug added were applied in a total volume of about 20 μl to each ear surface one day before and 6 hours after each DNCB application (for a period of 3 weeks). The negative control group consisted of rats without induced inflammation and treated with white petrolatum in a regimen analogous to the composition of urolithin A or hydrocortisone. Measurement of pruritus level (as measured by scratching reflexes) was evaluated as the total frequency of scratch reflexes during 10 minutes immediately after DNCB application on days 0, 4, 8, 12, 16, 20, 24, 28 and 32 of the experiment). Scratching was defined as a single or series of several reflexes of scratching with a paw directed at the site of DNCB application. The experimental results obtained were analyzed using the Statistica 7.1 program (StatSoft, Inc., Tulsa, OK, USA) and presented as mean values±SE. Statistical significance was set at P≤0.05. The results with established normal distribution in the D'Agostin and Pearson test were prepared using two- or three-factor analysis of variance (ANOVA). Parametric post-hoc analysis for individual time points was performed using the Bonferroni test.

[4] = tested on: Wistar rats (DNCB-induced atopic dermatitis); assay: Ear thickness (edema) in DNCB-induced atopic dermatitis rat model; assay type: in vivo
Method: It is similar to the indications for use of hydrocortisone, which was used as a positive control in the study. Urolitin A was obtained by synthesis according to Bialonska et al. (Bialonska et al., 2009) or purchased from Sigma-Aldrich. The ointment containing urolithin A was prepared by emulsifying the weighed substance into a solid vehicle (white petrolatum) using an unguator. Wistar rats aged 5-6 weeks (at the start of the experiment) kept under standard conditions with free access to feed and water were used for the tests. The animals were divided into 5 groups, 8 individuals in each group. To prepare 2,4-dinitrochlorobenzene (DNCB) composition inducing inflammation, DNCB was dissolved in 70% ethanol to a final concentration of 1.5% (w/v). Therapeutic composition was an ointment based on white petrolatum with 0.2% or 1.0% urolithin A added. The control ointment was white petrolatum without addition of urolithin A. The induction of chronic atopic dermatitis involved local 9-fold infiltration with 60 μl 1.5% 2,4-dinitrochlorobenzene (DNCB) on each (external and internal) surface of the right ear over 3 weeks (3 times a week). Negative control was the right ear of rats without induction inflammation. Treatment of atopic dermatitis with 0.2% or 1.0% urolithin composition and white petrolatum (control) or 1.0% hydrocortisone composition (positive control) was started eight days after sensitization—one day before the fourth application of DNCB. Ointments with appropriate for given group drug added were applied in a total volume of about 20 μl to each ear surface one day before and 6 hours after each DNCB application (for a period of 3 weeks). The negative control group consisted of rats without induced inflammation and treated with white petrolatum in a regimen analogous to the composition of urolithin A or hydrocortisone. Ear thickness was assessed using an electronic mini caliper the day before inflammation was induced (day 0) and then on days 4 and 8 prior to treatment and on days 4, 8, 12, 16, […] of therapy with urolithin A composition (on days 12, 16, 20, 24, 28 and 32 after inflammation inducing, respectively). The experimental results obtained were analyzed using the Statistica 7.1 program (StatSoft, Inc., Tulsa, OK, USA) and presented as mean values±SE. Statistical significance was set at P≤0.05. The results with established normal distribution in the D'Agostin and Pearson test were prepared using two- or three-factor analysis of variance (ANOVA). Parametric post-hoc analysis for individual time points was performed using the Bonferroni test.

TNF-alpha [5] = assay: TNF-alpha production by macrophages from human peripheral blood monocytes (ELISA); assay type: cell-based; conditions: 40 μM; LPS 100 ng/mL, 24 h; FIG. 16
mRNA for TNF-alpha = assay: TNF-alpha mRNA expression in THP-1 derived macrophages (real time PCR); assay type: cell-based, human; conditions: 40 μM; LPS stimulation; FIG. 14
Method: as §1, §2, §3, §4

ERK1/2 = ERK1/2 phosphorylation in THP-1 derived macrophages (Western blotting); assay type: cell-based, human; conditions: 40 μM; LPS 10 ng/mL, 35 min; FIG. 15
Method: Monocytes of the THP-1 line were cultured in RPMI 1640 medium supplemented with 10% FBS and 2 mM glutamine. For transformation of monocytes into macrophages, the cells were treated with 12.5 ng/mL PMA (phorbol 12-myristate 13-acetate) for 48 hours, then washed and incubated for 24 hours in a culture medium without PMA. After this time, urolithin A, urolithin B, iso-urolithin A and the corresponding glucuronides (GUA, GUB and GiUA) were added to the cells at a concentration of 40 μM. After 1 hour of incubation with the compounds, the cells were stimulated with LPS from Escherichia coli (10 ng/mL). To assess the level of TNF-alpha production, the cells were incubated for 6 hours, to assess the expression of mRNA for TNF-alpha, the cells were incubated for 24 hours, to assess the effect on ERK1/2 phosphorylation, the cells were incubated for 35 minutes. […] The obtained results of experiments on in vitro models were analyzed using the Statistica 13 program (StatSoft, Inc., Tulsa, OK, USA) and presented as mean values±SEM. Statistical significance was set at P≤0.05. The results with established normal distribution in the D'Agostin and Pearson test were prepared using analysis of variance (ANOVA). Parametric post-hoc analysis was performed using Dunnett's test.

[6] = day 32, 1% hydrocortisone, urolithin A 0.2 and 1%

Compound: CC(=O)Oc1ccc2c(c1)oc(=O)c1ccccc12 [3-acetyl-urolithin B, reference compound]
- TNF-alpha production by THP-1 derived macrophages (TNF-alpha [1]): did not show any activity

Compound: O=C(O)[C@H]1O[C@@H](Oc2ccc3c(c2)oc(=O)c2ccccc23)[C@H](O)[C@@H](O)[C@@H]1O [GUB, urolitin B 3-O-glucuronide]
- TNF-alpha production by THP-1 derived macrophages (TNF-alpha [1]): did not show any activity

Compound: O=C(O)[C@H]1O[C@@H](Oc2ccc3c(c2)oc(=O)c2ccc(O)cc23)[C@H](O)[C@@H](O)[C@@H]1O [GiUA, Iso-urolithin A 3-O-glucuronide]
- TNF-alpha production by THP-1 derived macrophages (TNF-alpha [1]): did not show any activity

- MPV (fl), PDW (fl), PDWcv (%) ([2]; day 32): did not change
- RBC, HGB, HCT, MCV ([2]; day 32): no changes
- RDW parameter level ([2]; day 32, 1% hydrocortisone, p<0.05): decrease in the RDW parameter level
Compound: C[C@]12CCC(=O)C=C1CC[C@@H]1[C@@H]2[C@@H](O)C[C@@]2(C)[C@H]1CC[C@]2(O)C(=O)CO [hydrocortisone]
- WBC (leukocyte) level ([2]; 1% composition, day 32, vs petrolatum, hydrocortisone p<0.05, urolithin A p<0.01): significant reduction in WBC
- Final WBC values compared to negative control (without atopic dermatitis) ([2]; 1% hydrocortisone, urolithin A 0.2 and 1%): remained at a higher level compared to negative control groups
- Thrombocrit (PCT %) ([2]; day 32, 1% composition, vs negative control, p<0.01): significantly higher values compared to the negative control group
- Number of thrombocytes (PLT) ([2]; day 32, 1% composition, vs negative control, p<0.05): significantly higher values compared to the negative control group
- Concentration of hemoglobin in erythrocytes (MCH and MCHC) ([2]; day 32, 1% hydrocortisone (p<0.05), urolithin A 0.2 and 1.0%): decrease in the concentration of hemoglobin in erythrocytes
- Monocyte population [2, 6]: reducing the population of monocytes and neutrophils
- Neutrophil population [2, 6]: reducing the population of monocytes and neutrophils
- Lymphocyte level ([2]; day 32, 1% hydrocortisone, urolithin A 0.2 and 1%, vs petrolatum): no significant differences
- Scratching rate (frequency of scratch reflexes) [3]: reduction in scratching rate
- Time profile of anti-edema effect, urolithin A vs. hydrocortisone ([4]; initial period of therapy (up to 12 days)): greater therapeutic effectiveness
- Ear edema (ear thickness) after local therapy ([4]; topical ointment in white petrolatum, urolithin A 0.2 and 1.0%, hydrocortisone 1%, urolithin A p<0.001, hydrocortisone p<0.01): reduced

Compound: O=c1oc2cc(O)ccc2c2cc(O)ccc12 [iso-urolithin A]
- Inhibition of TNF-alpha production by macrophages from human peripheral blood monocytes (TNF-alpha [5]): significantly less active
- TNF-alpha mRNA expression in THP-1 derived macrophages (mRNA for TNF-alpha): stimulated mRNA expression
- TNF-alpha production by THP-1 derived macrophages (TNF-alpha [1]): stimulated the production of TNF-alpha
- ERK1/2 kinase phosphorylation in THP-1 derived macrophages (ERK1/2): much less active

Compound: urolitin A 3-O-glucuronide and urolitin A 8-O-glucuronide [GUA]
- TNF-alpha production by THP-1 derived macrophages (TNF-alpha [1]): did not show any activity
